d = 2'-deoxy (DNA); m = 2'-O-methyl
Key:
[1] = target: T1, human HDAC-4 (Homo sapiens, UniProt P56524); assay: histone deacetylase enzyme assay, HDAC-4; type: biochemical
T1 construct: Flag; made in house; host or cells: human embryonic kidney 293 cells (calcium phosphate transfection)
Protocol: Flag-tagged human HDAC-4 enzyme was produced in human embronic kidney 293 cells after transformation by the calcium phosphate precipitation method. Briefly, 293 cells were cultured in Dulbecco's Modified Eagle Medium (DMEM) containing 10% fetal bovine serum and antibiotics. Plasmid DNA encoding Flag-tagged human HDAC-4 was precipitated by ethanol and resuspend in sterile water. DNA-calcium precipitates, formed by mixing DNA, calcium choloride and 2×HEPES-buffered saline solution, were left on 293 cells for 12-16 hours. Cells were return to serum-contained DMEM medium and harvested at 48 hour post transfection for purification of Flag-tagged HDAC-4 enzyme.
(§1) The other HDAC isotypes, HDAC-3 and HDAC-4, were purified directly on an anti-Flag affinity column.
(§2) For the deacetylase assay, 20,000 cpm of an [^3H]-metabolically-labeled acetylated histone was used as a substrate. Histones were incubated with cloned recombinant human HDAC enzymes at 37° C. […] All assay conditions were pre-determined to be certain that each reaction was linear. Reactions were stopped by adding acetic acid (0.04 M final concentration) and HCl (250 mM, final concentration). The mixture was extracted with ethyl acetate, and the released [3H]-acetic acid was quantified by liquid scintillation counting. For the inhibition studies, HDAC enzyme was preincubated with test compounds for 30 minutes at 4° C. prior to the start of the enzymatic assay. IC50 values for HDAC enzyme inhibitors were identified with dose response curves for each individual compound and, thereby, obtaining a value for the concentration of inhibitor that produced fifty percent of the maximal inhibition.

[2] = target: HDAC 2 (Homo sapiens, UniProt Q92769); assay: histone deacetylase enzyme assay, HDAC 2; type: biochemical
Chain of HDAC 2 (Q92769 whole entry): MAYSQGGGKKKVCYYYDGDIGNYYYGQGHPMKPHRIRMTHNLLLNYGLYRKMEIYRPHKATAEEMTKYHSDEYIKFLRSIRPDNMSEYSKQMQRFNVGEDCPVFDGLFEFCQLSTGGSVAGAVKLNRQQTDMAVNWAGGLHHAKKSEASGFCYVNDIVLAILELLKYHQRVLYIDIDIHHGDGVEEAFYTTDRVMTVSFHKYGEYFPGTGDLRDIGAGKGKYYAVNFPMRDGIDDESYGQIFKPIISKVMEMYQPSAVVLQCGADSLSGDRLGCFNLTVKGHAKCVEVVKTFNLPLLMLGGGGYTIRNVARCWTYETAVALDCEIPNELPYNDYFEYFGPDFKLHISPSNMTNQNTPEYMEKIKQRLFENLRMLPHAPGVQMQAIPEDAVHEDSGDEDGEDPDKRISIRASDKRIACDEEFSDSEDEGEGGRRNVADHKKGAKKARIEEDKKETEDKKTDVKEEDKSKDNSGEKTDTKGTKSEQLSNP
Protocol: as §2

[3] = cell cycle arrest; type: cell-based
[4] = target: T2, human HDAC-3 (Homo sapiens, UniProt O15379); assay: histone deacetylase enzyme assay, HDAC-3; type: biochemical
T2 construct: made in house; host or cells: insect cells (baculovirus expression system)
T2 sequence (O15379 whole entry): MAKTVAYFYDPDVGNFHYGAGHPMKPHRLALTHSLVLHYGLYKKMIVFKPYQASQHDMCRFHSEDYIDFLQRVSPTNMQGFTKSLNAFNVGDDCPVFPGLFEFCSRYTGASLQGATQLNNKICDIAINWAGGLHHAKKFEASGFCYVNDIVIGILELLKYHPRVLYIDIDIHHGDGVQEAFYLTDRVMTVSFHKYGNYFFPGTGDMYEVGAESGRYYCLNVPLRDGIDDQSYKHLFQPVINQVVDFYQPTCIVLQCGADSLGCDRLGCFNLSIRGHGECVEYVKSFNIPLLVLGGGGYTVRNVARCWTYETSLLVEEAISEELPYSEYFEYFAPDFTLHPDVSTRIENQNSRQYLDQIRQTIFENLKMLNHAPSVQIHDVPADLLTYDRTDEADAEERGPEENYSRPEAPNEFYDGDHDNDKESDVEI
Protocol: as §1, §2

[5] = system: human colon cancer HCT116 cells; assay: MTT assay of cell proliferation and cytotoxicity; type: cell-based; settings: HCT-116, 48 hours
Protocol: Four thousand five hundred (4,500) human colon cancer HCT116 cells (ATCC, Manassas, Va. were used in an MTT (3-[4,5-dimethylthiazol-2-yl]-2,5 diphenyl tetrazolium bromide) assay to quantitatively determine cell proliferation and cytotoxicity. Typically, HCT116 cells were plated into each well of the 96-well tissue culture plate and left overnight to attach to the plate. Compounds at various concentrations (1 uM, 5 uM and 25 uM, in DMSO) were added in triplicate into the culture media (final DMSO concentration 1%) and incubated for 48 hours. MTT solution (obtained from Sigma as powder) was added and incubated with the cells for 4 hours at 37° C. in incubator with 5% CO2. During the incubation, viable cells convert MTT to a water-insoluble formazan dye. Solubilizing buffer (50% N,N-dimethylformamide, 20% SDS, pH 4.7) was added to cells and incubate for overnight at 37C in incubator with 5% CO2. Solubilized dye was quantitated by colorimetric reading at […] using a reference of […].

[6] = system: p21; assay: p21 induction by small molecules; type: cell-based
[7] = target: T3, human HDAC-6 (Homo sapiens, UniProt Q9UBN7); assay: histone deacetylase enzyme assay, HDAC-6; type: biochemical
T3 construct: made in house; host or cells: insect cells (baculovirus expression system)
T3 sequence (Q9UBN7 1-1215): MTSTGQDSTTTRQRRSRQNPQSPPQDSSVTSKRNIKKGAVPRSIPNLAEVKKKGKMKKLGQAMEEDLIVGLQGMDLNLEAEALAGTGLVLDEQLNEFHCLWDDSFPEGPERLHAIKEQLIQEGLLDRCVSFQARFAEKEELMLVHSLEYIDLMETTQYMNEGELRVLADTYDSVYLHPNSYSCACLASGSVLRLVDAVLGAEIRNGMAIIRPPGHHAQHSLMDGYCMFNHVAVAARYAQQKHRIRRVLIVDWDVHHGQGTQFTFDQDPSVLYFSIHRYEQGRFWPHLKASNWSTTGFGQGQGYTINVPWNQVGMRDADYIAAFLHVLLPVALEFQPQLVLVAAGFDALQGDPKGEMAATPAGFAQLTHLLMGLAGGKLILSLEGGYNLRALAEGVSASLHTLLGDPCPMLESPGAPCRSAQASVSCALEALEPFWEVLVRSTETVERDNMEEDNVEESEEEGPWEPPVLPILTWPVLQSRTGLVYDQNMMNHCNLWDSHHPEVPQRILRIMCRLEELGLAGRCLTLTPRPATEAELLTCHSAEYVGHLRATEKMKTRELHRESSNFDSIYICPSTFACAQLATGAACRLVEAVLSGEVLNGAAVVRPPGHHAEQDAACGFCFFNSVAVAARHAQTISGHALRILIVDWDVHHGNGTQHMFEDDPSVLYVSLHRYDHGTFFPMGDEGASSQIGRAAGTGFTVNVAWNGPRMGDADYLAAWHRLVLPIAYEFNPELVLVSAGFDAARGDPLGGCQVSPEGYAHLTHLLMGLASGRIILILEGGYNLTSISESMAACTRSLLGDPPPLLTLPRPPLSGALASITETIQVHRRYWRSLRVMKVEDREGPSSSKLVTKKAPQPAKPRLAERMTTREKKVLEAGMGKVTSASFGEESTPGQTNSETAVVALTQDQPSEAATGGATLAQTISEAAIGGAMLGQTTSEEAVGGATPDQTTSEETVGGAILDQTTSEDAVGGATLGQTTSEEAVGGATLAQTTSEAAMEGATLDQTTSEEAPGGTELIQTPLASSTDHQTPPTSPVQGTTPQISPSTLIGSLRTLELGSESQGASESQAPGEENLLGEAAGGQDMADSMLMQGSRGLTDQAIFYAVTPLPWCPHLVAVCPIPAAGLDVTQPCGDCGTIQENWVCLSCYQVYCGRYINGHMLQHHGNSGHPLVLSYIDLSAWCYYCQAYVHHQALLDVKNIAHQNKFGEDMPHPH
Protocol: as §1, §2

[8] = system: acetylated histone H-4 in T24 human bladder cancer cells; assay: inhibition of HDAC activity in whole cells (acetylated histone H-4 Western); type: cell-based; settings: 16 hours
Protocol: T24 human bladder cancer cells (ATCC, Manassas, Va.) growing in culture were incubated with test compounds for 16 hours. Histones were extracted from the cells by standard procedures (see e.g. Yoshida et al., supra) after the culture period. Twenty μg total core histone protein was loaded onto SDS/PAGE and transferred to nitrocellulose membranes, which were then reacted with polyclonal antibody specific for acetylated histone H-4 (Upstate Biotech Inc., Lake Placid, […].). Horse Radish Peroxidase conjugated secondary antibody was used at a dilution of 1:5000 to detect primary antibody binding. The secondary antibody binding was visualized by use of the Enhanced chemiluminescence (ECL) detection kit (Amersham-Pharmacia Biotech., Inc., Piscataway, N.J.). After exposure to film, acetylated H-4 signal was quantitated by densitometry.

[9] = system: human colon cancer cells (HCT116); assay: tumor growth in a mouse model, colon; type: in vivo, BALB/c nude mice; settings: 40 mg/kg body weight/day, i p; vs vehicle-treated mice
Protocol: Female BALB/c nude mice were obtained from Charles River Laboratories (Charles River, NY) and used at age 8-10 weeks. Human prostate tumor cells (DU145, 2×10^6) or human colon cancer cells (HCT116; 2×10^6) or small lung core A549 2×10^6 were injected subcutaneously in the animal's flank and allowed to form solid tumors. Tumor fragments were serially passaged a minimum of three times, then approximately 30 mg tumor fragments were implanted subcutaneously through a small surgical incision under general anaesthesia. Small molecule inhibitor administration by intraperotineal or oral administration was initiated when the tumors reached a volume of 100 mm^3. For intraperotineal administration, small molecule inhibitors of HDAC (40-50 mg/kg body weight/day) were dissolved in 100% DMSO and administered daily intraperitoneally by injection. For oral administration, small molecule inhibitors of HDAC (40-50 mg/kg body weight/days) were dissolved in a solution containing 65% polyethylene glycol 400 (PEG 400 (Sigma-Aldridge, Mississauga, Ontario, Calif., Catalogue No. P-3265), 5% ethanol, and 30% water. Tumor volumes were monitored twice weekly up to 20 days. Each experimental group contained at least 6-8 animals. Percentage inhibition was calculated using volume of tumor from vehicle-treated mice as controls.

[10] = system: human HDAC-4 protein; assay: Western blot of HDAC-4 protein in A549 cells; type: cell-based; settings: 50 nM, 48 hours
Protocol: Human cancer A549 cells were treated with AS1, AS2 or MM2 oligos for 48 hours. Whole cell lysates were analyzed by Western blotting using antibodies specific against human HDAC4.
OSDN treatment conditions were as previously described.
Cells were lysed in buffer containing 1% Triton X-100, 0.5% sodium deoxycholate, 5 mM EDTA, 25 mM Tris-HCl, pH 7.5, plus protease inhibitors. Total protein was quantified by the protein assay reagent from Bio-Rad (Hercules, Calif.). 100 ug of total protein was analyzed by SDS-PAGE. Next, total protein was transferred onto a PVDF membrane and probed with various HDAC-specific primary antibodies. Rabbit anti-HDAC-1 (H-51), anti-HDAC-2 (H-54) antibodies (Santa Cruz Biotechnologies, Santa Cruz, Calif.) were used at 1:500 dilution. Rabbit anti-HDAC-3 antibody (Sigma, St. Louis, Mo.) was used at a dilution of 1:1000. Anti-HDAC-4 antibody was prepared as previously described (Wang, S. H. et al., (1999) Mol. Cell. Biol. 19:7816-27), and was used at a dilution of 1:1000. Anti-HDAC-6 antibody was raised by immunizing rabbits with a GST fusion protein containing a fragment of HDAC-6 protein (amino acid #990 to #1216, GenBank Accession No. AAD29048). Rabbit antiserum was tested and found only to react specifically to the human HDAC-6 isoform. HDAC-6 antiserum was used at 1:500 dilution in Western blots to detect HDAC-6 in total cell lysates. […]

[11] = system: HDAC-4 mRNA; assay: Northern blot of HDAC-4 mRNA in A549 cells; type: cell-based, human; settings: escalating doses (50 nM or 100 nM), 24 hours
Protocol: Human cancer A549 cells were treated with escalating doses of AS1, AS2 or MM2 oligos for 24 hours. Total RNAs were harvested for Northern analysis.
Briefly, human A549 and/or T24 human bladder carcinoma cells were seeded in 10 cm tissue culture dishes one day prior to oligonucleotide treatment. The cell lines were obtained from the American Type Culture Collection (ATCC) (Manassas, Va.) and were grown under the recommended culture conditions. Before the addition of the oligonucleotides, cells were washed with PBS (phosphate buffered saline). Next, lipofectin transfection reagent (GIBCO BRL Mississauga, Ontario, Calif.), at a concentration of 6.25 μg/ml, was added to serum free OPTIMEM medium (GIBCO BRL, Rockville, Md.), which was then added to the cells. The oligonucleotides to be screened were then added directly to the cells (i.e., one oligonucleotide per plate of cells). Mismatched oligonucleotides were used as controls. The same concentration of oligonucleotide (e.g., 50 nM) was used per plate of cells for each oligonucleotide tested.
Cells were harvested, and total RNAs were analyzed by Northern blot analysis. Briefly, total RNA was extracted using RNeasy miniprep columns (QIAGEN). Ten to twenty μg of total RNA was run on a formaldehyde-containing 1% agarose gel with 0.5 M sodium phosphate (pH 7.0) as the buffer system. […]

[12] = system: Human A549 cells; assay: cDNA array analysis of gene transcription; type: cell-based; settings: A549, 50 nM, two days
From the text: Fold change on transcriptions was compared to that of HDAC-4 mismatch oligo (MM2) treated cells;

T1 sequence (P56524 whole entry): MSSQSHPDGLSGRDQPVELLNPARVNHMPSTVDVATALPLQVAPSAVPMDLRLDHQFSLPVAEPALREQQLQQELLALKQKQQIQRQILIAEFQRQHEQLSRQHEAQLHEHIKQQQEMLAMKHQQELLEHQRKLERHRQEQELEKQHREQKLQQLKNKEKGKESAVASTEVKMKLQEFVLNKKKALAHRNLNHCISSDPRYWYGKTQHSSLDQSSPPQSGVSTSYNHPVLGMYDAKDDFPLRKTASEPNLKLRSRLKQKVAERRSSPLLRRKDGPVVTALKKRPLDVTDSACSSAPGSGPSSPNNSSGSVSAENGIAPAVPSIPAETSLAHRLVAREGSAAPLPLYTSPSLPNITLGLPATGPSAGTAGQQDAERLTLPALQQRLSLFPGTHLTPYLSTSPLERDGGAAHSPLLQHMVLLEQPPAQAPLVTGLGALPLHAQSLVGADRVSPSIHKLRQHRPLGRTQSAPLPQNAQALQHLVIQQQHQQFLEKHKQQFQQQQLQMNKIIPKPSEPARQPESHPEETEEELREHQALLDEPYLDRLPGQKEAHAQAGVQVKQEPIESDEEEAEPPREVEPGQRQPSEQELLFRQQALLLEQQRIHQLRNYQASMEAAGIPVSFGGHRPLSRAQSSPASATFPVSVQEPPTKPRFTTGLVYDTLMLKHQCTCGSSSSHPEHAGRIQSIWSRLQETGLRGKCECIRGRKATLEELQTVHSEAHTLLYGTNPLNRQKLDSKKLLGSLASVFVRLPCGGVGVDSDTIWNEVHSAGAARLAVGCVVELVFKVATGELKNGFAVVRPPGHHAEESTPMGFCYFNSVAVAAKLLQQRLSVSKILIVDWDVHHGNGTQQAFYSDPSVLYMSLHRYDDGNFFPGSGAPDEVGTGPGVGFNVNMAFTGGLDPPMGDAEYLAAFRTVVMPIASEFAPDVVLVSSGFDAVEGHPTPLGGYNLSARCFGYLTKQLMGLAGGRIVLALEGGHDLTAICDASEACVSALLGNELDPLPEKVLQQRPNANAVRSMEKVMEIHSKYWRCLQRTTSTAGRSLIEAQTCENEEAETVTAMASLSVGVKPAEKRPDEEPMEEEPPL

IC50 [1]	IC50 [2]	IC50 [4]	IC50 [7]	Compound	cell cycle arrest EC [3]	IC50 [5]	p21 induction [6]	effective concentration for histone H4 acetylation [8]	expression of HDAC-4 protein [10]	expression of HDAC-4 mRNA (HDAC4 expression at RNA level) [11]	further results
13 µM	8 µM	18 µM	> 50 µM	Nc1ccccc1NC(=O)CCCCCCC(=O)c1ccc(-c2ccccc2)nc1 [MG 385 9]	3 µM	5 µM	5 µM	5 µM			
23 µM	4 µM	> 20 µM	> 50 µM	Nc1ccccc1NC(=O)CCCCCCC(=O)c1ccc(-c2ccccc2)cc1 [MG 365 0]	9 µM	5 µM	10 µM	10 µM			% inh. of tumor formation in vivo, colon [9]: 53 (40, i p) %
				HDAC4 AS2: 5′-TACAGTCCATGCAACCTCCA-3′, antisense to human HDAC4 3′-UTR, AB006626 (sugars from the 5' end m4 d12 m4, all phosphorothioate, methylation of C and T or U not given here)					can inbibit HDAC4 expression at protein level	can inbibit HDAC4 expression at RNA level in a dose-dependent manner	
				HDAC-4 AS1: 5′-GCTGCCTGCCGTGCCCACCC-3′, antisense to human HDAC4 5′-UTR, AB006626 (sugars from the 5' end m4 d12 m4, all phosphorothioate, methylation of C and T or U not given here)					can inbibit HDAC4 expression at protein level	can inbibit HDAC4 expression at RNA level in a dose-dependent manner	fold change, CDK4 ([12]; vs HDAC-4 mismatch oligo (MM2)): −3 fold; fold change, Egr-1 ([12]; vs HDAC-4 mismatch oligo (MM2)): 3 fold; fold change, GADD45 ([12]; vs HDAC-4 mismatch oligo (MM2)): 3 fold; fold change, GADD153 ([12]; vs HDAC-4 mismatch oligo (MM2)): 6 fold; fold change, IL-15 ([12]; vs HDAC-4 mismatch oligo (MM2)): 4 fold; fold change, IRF ([12]; vs HDAC-4 mismatch oligo (MM2)): 2 fold; fold change, Notch-4 ([12]; vs HDAC-4 mismatch oligo (MM2)): −3 fold; fold change, PLK ([12]; vs HDAC-4 mismatch oligo (MM2)): −4 fold; fold change, basic FGF ([12]; vs HDAC-4 mismatch oligo (MM2)): 2 fold; fold change, cyclin A2 ([12]; vs HDAC-4 mismatch oligo (MM2)): −3 fold; fold change, cyclin B1 ([12]; vs HDAC-4 mismatch oligo (MM2)): −3 fold; fold change, p21 ([12]; vs HDAC-4 mismatch oligo (MM2)): 4 fold; fold change, topo II α ([12]; vs HDAC-4 mismatch oligo (MM2)): −5 fold; number of genes with altered expression ([12]; out of 588 genes): 39 genes

From patent US20030148970A1, “Methods for specifically inhibiting histone deacetylase-4” (priority 2001, published 2003)
